“Also recorded” adds a separate entry of the source.

Test [1] concerns C57BL/6NTac mice irradiated to 9.25 Gy total body irradiation. Nature of the test: Survival after 9.25 Gy total body irradiation (TBI). Type of test: in vivo, mouse. The settings on record: 9.25 Gy TBI; for survival at 30 days after TBI: treatment 24 hrs later, FIG. 7, irradiated control 10%; for 30 days survival: JP4-039 20 mg/kg I.M., G-CSF 4 mg/kg I.P. at 24 h, n=10, irradiated controls 20%. An excerpt: Mice and Animal Care. Female C57BL/6NTac (Taconic Biosciences, Wayne, Pa.) and C57BL/6 lgr5+ green fluorescent protein tagged (5-6) lgr5+ mice were housed 5 per cage and fed standard laboratory chow and deionized drinking water according to University of Pittsburgh IACUC regulations.
Irradiation. Total body irradiation was delivered with a cesium-137 Gamma Cell irradiator with filters removed at a dose rate of […], beam flatness, homogeneity, and analysis of spectrum of gamma ray precise dosimetry were carried out. Mice were irradiated in a plexiglass pie plate that contains 12 sections. Five mice were placed in each pie plate. The mice were not placed in adjacent sections, but had one or two empty sections between mice so that the mice would not shield the other mice in the pie plate. Thermoluminescent (TLD) readings according to published methods. [Steinman J, et al., Improved total- body irradiation survival by delivery of two radiation mitigators that target distinct cell death pathways. Radiat Res 189(1): 68-83, 2018.]
Dose Response Curve of Number of Gavaged Lactobacillus-reuteri, or E. coli Producing IL-22 or IFN-β. Mice were irradiated to 9.25 Gy TBI, which took 13-14 minutes, and were then 24 h later gavaged with 100 μL saline solution containing Lactobacillus reuteri-IL-22, or E. coli-IL-22, or at 48 hrs post irradiation E. coli-IFN-β (based on the known time of requirement for IFN-β by lgr5+ cells at this time). All groups of mice received 100 μL saline, which contained varying numbers of bacteria ranging from 10^9, 10^8, 10^7, to 10^6 bacteria (n=10 animals per group).
Administration of Small Molecule Radiation Mitigator, IL-22 Protein, L. reuteri Lacking IL-22, or Gavaged Fecal Microbiome. As a control for probiotic mitigators, the GS-nitroxide, JP4-039 [Rwigema J -CM, et al., Two strategies for the development of mitochondrial-targeted small molecule radiation damage mitigators. Int J Radiat Oncol Biol Phys 80(3): 860-868, 2011], was prepared and administered according to published methods, I.M. at 20 mg/kg in 50 μL of 30% cyclodextrin aqueous [Epperly M W, et al., Evaluations of different formulations and routes for the delivery of the ionizing radiation mitigation GS-nitroxide (JP4-039). In Vivo 32: 1009-1023, 2018]. Cyclodextrin alone has no radiomitigative effect. […]
10^9 L. reuteri lacking IL-22 was administered in 100 μl/saline. A similar number of bacteria from feces obtained from 30-day survivors of 9.25 Gy TBI was gavaged. Fecal microbiome transplant (FMT) was carried out by delivery by gavage in 100 μL saline; 10^9 bacteria from the feces of 30-day survivors of 9.25 Gy TBI of C57BL/6 female mice.
C57BL/6NTac mice were irradiated to 9.25 Gy total body irradiation and gavaged with Lactobacillus reuteri-IL-22 or Lactobacillus reuteri harboring the empty vector control. […]
To determine whether successful radiation mitigation correlated with changes in the intestinal microbiome, groups of mice received 9.25 Gy total body irradiation (TBI) and subgroups treated with the small molecule radiation mitigator, JP4-039 (20 mg/kg in 50 microliters of 30% 2-hydroxypropyl-β-cyclodextrin I.M.), G-CSF (4 mg/kg I.P.), or both mitigators at 24 h after TBI. Fecal pellets were analyzed pre-irradiation, and at days 1, 3, 5, 7, 10, 14, 21, and 30 after irradiation. […]

For test [2], the system named is IL-22. The test can be described thus: Intestinal level of IL-22 after TBI. It counts as in vivo, mouse. To be noted: 9.25 Gy TBI; treatment at 24 h; FIG. 17A.

For the molecule “IL-22 protein: recombinant IL-22 protein injected as control”, in test [1] (treatment 24 hr after, IL-22 protein 0.1 mg/kg I.M., FIG. 9), the “survival compared to irradiation only mice” value is on record as “significantly increased survival; also recorded: significantly improved survival”. The “survival at 30 days after TBI” value in test [1] is given as 40%.
Consider `CC(C)C[C@@H](/C=C/CC(=O)NC1CC(C)(C)N([O])C(C)(C)C1)NC(=O)OC(C)(C)C` [JP4-039], for which, in test [1], the 30 days survival is reported as 50% and the “survival at 30 days after TBI” value is given as 70%. In addition, the “intestinal level of IL-22 after TBI” value in test [2] is on record as “restored IL-22 levels”.

B1: G-CSF: Granulocyte colony-stimulating factor polypeptide, irradiation mitigator (protein, listed as Homo sapiens)
chain: MAGPATQSPMKLMALQLLLWHSALWTVQEATPLGPASSLPQSFLLKCLEQVRKIQGDGAALQEKLVSECATYKLCHPEELVLLGHSLGIPWAPLSSCPSQALQLAGCLSQLHSGLFLYQGLLQALEGISPELGPTLDTLQLDVADFATTIWQQMEELGMAPALQPTQGAMPAFASAFQRRAGGVLVASHLQSFLEVSYRVLRHLAQP
With B1, the 30 days survival in test [1] came out at 70%.

Values taken from patent US20220362340A1, “COMPOSITIONS AND USES THEREOF FOR TREATING IRRADIATION-INDUCED INTESTINAL DAMAGE” (UNIVERSITY OF PITTSBURGH-OF THE COMMONWEALTH SYSTEM OF …, priority 2019, published 2022).
